In patent US20240016787A1, “METHODS FOR TREATMENT OF CANCER AND PHAGOCYTOSIS-DEFICIENCY RELATED DISEASES” (RDiscovery, LLC, priority 2020, published 2024):

Experiments:
[1] = test system: J774.1 mouse macrophage cell line; experiment: In vitro phagocytosis of PE-labeled polystyrene beads by macrophages (flow cytometry); type: cell-based; details: 0.3 μM, 1 μM, or 3 μM for 20 hours; beads 2.5 hours; vs DMSO vehicle
Description: The effect of cilnidipine on phagocytosis by macrophages was evaluated in vitro using the J774.1 mouse macrophage cell line. Cells were seeded at 2×10^5 cells/well/200 μL of a 48 well plate and cultured for 24 hours in DMEM medium containing 10% FBS and antibiotics at 37° C. under 5% CO2. Cells were washed once and then incubated with cilnidipine at concentrations 0.3 μM, 1 μM, or 3 μM, or DMSO (vehicle) for 20 hours.
The level of phagocytosis was evaluated by adding 10 μL of DMEM medium containing 4×10^6 PE-labeled polystyrene beads (Fluoresbrite® Polychromatic Red Microspheres 2.0 μm) to cells and culturing them for 2.5 hours. Cells were then washed 3 times with PBS and collected. The level of phagocytic activity was assessed by flow cytometry, measuring the amount of fluorescent signal derived from the PE-labelled beads that were taken up by the cells, with cells treated with 0.1% DMSO used as negative control. The proportions of cells engulfing 1 or more, 2 or more, 3 or more, and 4 or more particles were measured.

[2] = test system: pancreatic and melanoma cancer cell lines; experiment: Anti-proliferative effects on cancer cell lines in vitro; type: cell-based; details: AsPC-1, Capan-1, KP4, MIA PaCa-2, BxPC-3, A375, SK-MEL-28, MeWo
Description: The effect of cilnidipine on cell proliferation of eight cancer cell lines is evaluated. Five pancreatic cancer cell lines are included, four containing KRAS mutations (AsPC-1 (G12D), Capan-1 (G12V), KP4 (M188V, G12D) and MIA PaCa-2 (G12C)), and one pancreatic cancer cell line with wild type KRAS, BxPC-3, in addition to three melanoma cell lines, two of which contain B-Raf mutations: A375 (V600E) and SK-MEL-28 (V600E), and one melanoma cell line with wild type B-Raf, MeWo.

[3] = test system: MC38 cells, a murine colon adenocarcinoma cell line; experiment: In vivo anti-tumor effect in MC38 tumor-bearing C57BL/6 mice; parameters: species or system mouse; details: i.t. on days 10 and 14 after tumor inoculation; vs control mice
Description: The in vivo anti-tumor effect of cilnidipine is assessed in MC38 tumor-bearing C57BL/6 mice. Five or seven week old C57BL/6 mice are maintained under specific pathogen-free (SPF) conditions. Mice are injected subcutaneously with 5×10^5 MC38 cells, a murine colon adenocarcinoma cell line, and treated i.t. with cilnidipine on days 10 and 14 after tumor inoculation. Tumor volume is measured at the various time points.

mdx mouse = mdx mouse model of Duchenne muscular dystrophy (DMD); type: in vivo; details: mdx mice, vs MDX-Vehicle
Description: The effect of cilnidipine and the cilnidipine derivative NS4-043 in the mdx mouse model of Duchenne muscular dystrophy (DMD) model was evaluated. The mdx mouse has a point mutation in its DMD gene, changing the amino acid coding for a glutamine to a stop codon, which causes the muscle cells to produce a small, nonfunctional dystrophin protein.
Animals were dosed once daily with vehicle, idebenone or cilnidipine on study days: 0 to 20.
Mice were evaluated by a rotarod test on study days 19 and 20. Body weight was measured throughout the study period. […] (CK) and […] (LDH), two biomarkers of DMD, were measured on day 21.

[4] = test system: Capan-1 human pancreatic ductal adenocarcinoma cells; experiment: Subcutaneous Capan-1 pancreatic cancer xenograft model in female BALB/c nude mice; type: in vivo
Description: A study of the in vivo therapeutic efficacy of cilnidipine as a single agent or in combination with gemcitabine in the treatment of the subcutaneous Capan-1 pancreatic cancer xenograft model in female BALB/c nude mice was performed.
Female BALB/c nude mice 7-9 weeks of age were used in the study.
Capan-1 human pancreatic ductal adenocarcinoma cells were cultured in IMEM medium with 20% FBS at 37° C. and 5% CO2 in air atmosphere.
Each mouse was inoculated subcutaneously in the right upper flank region with tumor cells (5×10^6 cells) in 0.1 ml of PBS with Matrigel (1:1) for tumor development.
Randomization was started when the mean tumor size reached approximately 254.27 mm^3. A total of 48 mice were enrolled in the study and randomly allocated to the six study groups, with eight mice per group. Randomization was performed based on “Matched distribution” method (Study Director™ software, version 3.1.399.19). The date of randomization was denoted as day 0.
After tumor inoculation, the animals were checked daily for morbidity and mortality. During routine monitoring, the animals were checked for any effects of tumor growth and treatments on behavior such as mobility, food and water consumption, body weight gain/loss (body weights were measured twice per week after randomization), eye/hair matting and any other abnormalities. Mortality and observed clinical signs were recorded for individual animals in detail.
Tumor volumes were measured twice per week after randomization in two dimensions using a caliper, and the volume was expressed in mm^3 using the formula: V=(L×W×W)/2, where V is tumor volume, L is tumor length (the longest tumor dimension) and W is tumor width (the longest tumor dimension perpendicular to L). Dosing as well as tumor and body weight measurements were conducted in a Laminar Flow Cabinet. Body weights and tumor volumes were measured by using Study Director™ software (version 3.1.399.19).
The vehicle used for cilnidipine was 5% DMSO and corn oil. The vehicle used for gemcitabine was saline. Dosing volume was adjusted for body weight (dosing volume=5/10 μL/g). Treatments were initiated on day 0 following randomization.
The study was planned so that (1) mice showing a body weight loss (BWL)>20% after one measurement would be sacrificed, (2) mice showing BWL>15% after one measurement would be given a dosing holiday in a separate cage alone with daily monitoring for 72 hours, while other mice in the same group would receive dosing as scheduled, with treatment of the isolated mouse resuming when the BWL had recovered to BWL<10%, and (3) mice showing a BWL>10% would receive supplemental gel. BWL was calculated based on the BW on the first day of treatment.
The study endpoint was tumor growth inhibition (TGI). […] TGI is expressed as: TGI (%)=100×(1−T/C). […]

[5] = 10 mg/kg once daily days 0 to 20, measured day 21
[6] = 200 mg/kg once daily days 0 to 20, measured day 21

Structure (SMILES): COCCOC(=O)C1=C(C)NC(C)=C(C(=O)OC/C=C/c2ccccc2)C1c1cccc([N+](=O)[O-])c1 (stereo not drawn) [Cilnidipine]
- phagocytic activity of macrophages [1]: enhanced phagocytic activity of macrophages in a dose dependent manner
- anti-proliferative effect on cancer cell lines [2]: has an anti-proliferative effect on the cell lines
- tumor growth [3]: reduces tumor growth as compared to control mice
- plasma CK (mdx mouse; [5]): significantly suppressed plasma CK
- plasma LDH (mdx mouse; [5]): significantly decreased plasma LDH
- Tumor Growth Inhibition (TGI) on Day 20, TGI vs G01 ([4]; Group 4: cilnidipine 10 mg/kg p.o. QD × 21 days): 9.014%
- Tumor Growth Inhibition (TGI) on Day 20, TGI vs G01 ([4]; Group 4: cilnidipine 10 mg/kg p.o. QD × 21 days, listed as cilnidipine): 9.01%

Structure (SMILES): Nc1ccn([C@@H]2O[C@H](CO)[C@@H](O)C2(F)F)c(=O)n1 [Gemcitabine]
- Tumor Growth Inhibition (TGI) on Day 20, TGI vs G01 ([4]; Group 2: gemcitabine 30 mg/kg i.p. Q3D × 4): 15.273%
- Tumor Growth Inhibition (TGI) on Day 20, TGI vs G01 ([4]; Group 3: gemcitabine 100 mg/kg i.p. Q3D × 4): 30.717%

Structure (SMILES): COC1=C(OC)C(=O)C(CCCCCCCCCCO)=C(C)C1=O [Idebenone]
- plasma CK (mdx mouse; [6]): but not idebenone, significantly suppressed plasma CK
- plasma LDH (mdx mouse; [6]): significantly decreased plasma LDH

Structure (SMILES): COCCOC(=O)C1=C(C)NC(C)=C(C(=O)OC/C=C/c2ccncc2)C1c1ccccc1[N+](=O)[O-] (stereo not drawn) [NS4-043]
- plasma LDH (mdx mouse; [5]): did not significantly decrease plasma LDH
